In PubChem BioAssay AID686920 (Broad Institute, 2013):
“And” between values parts separate entries of the source, which are not always exact repeats. Equal entries are not always repeated.

Test system: A673 NR0B1-luciferase reporter, viability-normalised luminescence
Assay: NR0B1 reporter signal reduction in A673 cells – cell-based, luciferase luminescence, cherry-pick, EWS/Fli inhibitor project, dose response (AID 686920)

Row | Structure (SMILES) | AC35
1 | COc1ccc(Nc2ncnc3ccc(Br)cc23)c(OC)c1 | 5.94 µM
2 | Cc1ccc(S(=O)(=O)N(C)C[C@H]2Oc3c(cccc3N(C)C)C(=O)N([C@@H](C)CO)C[C@@H]2C)cc1 | 1.62 µM
3 | C[C@@H]1CN([C@@H](C)CO)C(=O)c2cccc(NC(=O)CCCCCC(=O)Nc3ccccc3N)c2O[C@@H]1CN(C)Cc1ccc(Oc2ccccc2)cc1 | 6.74 µM
4 | C=C1C(=O)O[C@@H]2[C@H]1[C@@H](OC(=O)/C(C)=C/C)C/C(C)=C\C(=O)/C=C(\C)[C@@H]2O | 8.09 µM
5 | C[C@@H]1CN([C@H](C)CO)S(=O)(=O)c2ccc(C#CC(C)(C)O)cc2O[C@H]1CN(C)Cc1ccc(-c2ccccc2)cc1 | 4.22 µM
6 | C=CCn1c(O)c(N=Nc2ccccc2)c2ccccc21 | 38.9 µM
7 | C[C@H]1O[C@@H](O[C@H]2[C@@H](O)C[C@H](O[C@H]3[C@@H](O)C[C@H](O[C@H]4CC[C@@]5(C)[C@H](CC[C@@H]6[C@@H]5C[C@@H](O)[C@]5(C)[C@@H](C7=CC(=O)OC7)CC[C@]65O)C4)O[C@@H]3C)O[C@@H]2C)C[C@H](O)[C@@H]1O | 0.0886 µM
8 | O=c1ccc2ccccc2c2ccccc12 | 8.15 µM
9 | CC1(C)Oc2cc3oc(-c4cc(O)cc(O)c4)cc3cc2CC1O (stereo not drawn) | 2.07 µM
10 | O=C(C[C@@H]1C[C@H]2c3cc(NC(=O)CC4CC4)ccc3O[C@H]2[C@H](CO)O1)NCc1ccccc1F | 40.3 µM
11 | COc1ccc(/C=C2/NC(=O)N(CC(=O)Nc3cccc(C)c3)C2=O)cc1O | 9.76 µM
12 | Nc1ccc2oc(-c3cc(Br)ccc3Cl)nc2c1 | 15 µM
13 | C[C@H]1CN([C@@H](C)CO)C(=O)c2cc(N(C)C)ccc2O[C@@H]1CN(C)Cc1ccc(C(=O)Nc2ccccc2N)cc1 | 9.36 µM
14 | Cc1c(CCOC(=O)CC23CC4CC(CC(C)(C4)C2)C3)sc[n+]1CC(=O)c1ccccc1 | 16.9 µM
15 | COc1ccc([Si](C)(C)[C@H]2[C@H](CCO)O[C@@]3(C(=O)N(c4ccccc4)c4ccccc43)[C@@H]2C)cc1 | 7.79 µM
16 | Nc1ccc(Oc2cccc(Oc3ccc(N)cc3)c2)cc1 | 1.15 µM
17 | CN1C(=O)c2cc(NC(=O)c3ccc(Cl)cc3)ccc2OC[C@@H]2O[C@@H](CC(=O)NCc3cccc(F)c3)CC[C@H]21 | 7.86 µM

Row | Structure (SMILES) | AC35
18 | O=C(O)CN1C(=O)/C(=C\c2ccccc2OCc2ccc(Cl)cc2Cl)SC1=S | 13.7 µM
19 | O=C(Sc1cccc2cccnc12)c1ccccc1Br | 16.6 µM
20 | C[C@H](O)C#Cc1ccc2c(c1)O[C@@H](CN(C)Cc1ccc(-c3ccccc3)cc1)[C@H](C)CN([C@@H](C)CO)S2(=O)=O | 6.15 µM and 8.6 µM
21 | O=C(C[C@@H]1C[C@H]2c3cc(NS(=O)(=O)c4ccc(F)cc4)ccc3O[C@H]2[C@H](CO)O1)NCc1ccc(-c2ccccc2)cc1 | 2.03 µM
22 | CN1C(=O)c2cc(NC(=O)c3ccc(C(F)(F)F)cc3)ccc2OC[C@@H]2O[C@@H](CC(=O)NC3Cc4ccccc4C3)CC[C@H]21 | 8.33 µM
23 | COc1cccc(-c2cccc(-c3nc(C(=O)NCC(F)(F)F)cc4c3[C@H](CCO)N([S@@](=O)C(C)(C)C)C4)c2)c1 | 3.19 µM
24 | Nc1sc(-c2ccccc2)cc1-c1n[nH]c(=S)n1C1CCCCC1 | 3.67 µM
25 | CC(=O)Nc1cccc(-c2ccnc3c2CC(C)(C(=O)NCc2ccc(N(C)C)cc2)O3)c1 (stereo not drawn) | 7.51 µM
26 | Cc1cc(C(=O)Nc2ccc3c(c2)C(=O)N(C)[C@@H]2CC[C@H](CC(=O)N[C@H](C)c4ccccc4)O[C@H]2CO3)no1 | 10.2 µM
27 | CC1OC(OC2CC(O)C3(CO)C4C(O)CC5(C)C(C6=CC(=O)OC6)CCC5(O)C4CCC3(O)C2)C(O)C(O)C1O (stereo not drawn) | 0.0738 µM
28 | CCN1CCN(/C=N/c2nc3c(s2)CCCC3)CC1 | 7.97 µM
29 | COC(=O)c1cccc(NC(=O)NC(=O)c2ccc(Cl)cc2)c1 | 0.225 µM
30 | C[C@H]1CN([C@@H](C)CO)C(=O)Cc2cc(NC(=O)CCCCCC(=O)Nc3ccccc3N)ccc2O[C@H]1CN(C)Cc1ccc(Cl)c(Cl)c1 | 4.68 µM
31 | Cc1ccc2oc(/N=C(\N)NC(=O)C(C)(C)C)nc2c1 | 0.18 µM
32 | C[C@H](CO)N1C[C@H](C)[C@H](CN(C)Cc2ccccc2)Oc2ccc(NC(=O)CCCCCC(=O)Nc3ccccc3N)cc2CC1=O | 5.93 µM
33 | COc1ccc(-c2nc3c(s2)CCc2onc(-c4ccc(OC)cc4)c2-3)cc1 | 7.59 µM
